From patent US9145436B2 (priority 2010, dated 2015)
Like-named read-outs stand apart in the source and are kept apart here.

Key:
[1] = tested on: HeLa; experiment: Cytotoxicity of the substances (TC50), HeLa; assay type: cell-based; conditions: HeLa cells
[2] = tested on: IL-12 production in J774 cells; experiment: Cytokine production in stimulated J774 cells, IL-12 (ELISA); assay type: cell-based; conditions: Normal (LPS 0.1 μg/mL)
Description: (§1) Various analogs were compared in vitro to determine key properties. Antibacterial effect was determined in representative Gram negative (E. coli) and positive (S. aureus) organisms using the method of example 16. Effects on lung inflammation were compared using the method of example 32. BALF (Bronchoalveolar Lavage Fluid) TNFa levels are determined by ELISA. In vitro toxicity is determined by growth inhibition of Jurkat lymphocytes in DMEM medium as determined using Alamar Blue reaction. Effects on cytokine production are determined in J774 cells stimulated with either LPS (0.1 μg/mL) or medium from J774 cells stimulated for 24 h with 0.2 μg/mL LPS. Cytokines are determined by ELISA and expressed as % DMSO control at 50 μM inhibitor concentration.

[3] = tested on: BALF TNFa; experiment: Airway inflammation by inhaled LPS, BALF TNFa by ELISA; assay type: in vivo, DBA or Swiss female mice; conditions: 30 minutes prior to LPS challenge
Description: as §1
Airway inflammation is induced by inhalation of solutions containing bacterial LPS. 10 μg per mouse is provided intranasally in phosphate buffered saline. 90 minutes after challenge, bronchioalveolar lavage fluid is recovered from the lung using PBS (0.5 mL) injected into the lung via the trachea and frozen prior to analysis for cytokines by ELISA. TNFa is the primary cytokine measured. Compound 2 and other test substances are dissolved in 0.02% citric acid in water, and the pH of the resulting solution is set to 6.2. Compounds are administered 30 minutes prior to challenge either as 25 μL solutions for intranasal use, or as 125 μL volumes for p.o. application in 25 g DBA or Swiss female mice. The results of said interventions include reduction of lung and/or plasma cytokines. Example data are recorded in FIG. 13.

[4] = tested on: S. aureus; experiment: Antibiotic dilution assay, S. aureus; assay type: cell-based; conditions: liquid medium, OD600, read-out: Bacterial IC 50 (μM) S. Aureus
Description: (§2) The antibiotic activity of the compounds was determined via antibiotic dilution assay. After filling 100 μl growth medium into all the wells of a 96 well plate, the compounds were diluted from 1 mM to 0.010 μM. The growth control wells contained growth medium instead of inhibitory agents. The inhibitory control contained Compound 3 (200 μM). Suspensions of E. coli and B. pumilus in growth medium with an approximate OD600 of 0.03-0.04 were added to the diluted compounds, incubated for 6-8 hours on the shaker at 750 rpm and 37° C. until the growth control had reached an OD600 of about 0.6-0.8. The OD600 was then determined on a standard plate reader.
as §1

[5] = tested on: TNFa production in J774 cells; experiment: Cytokine production in stimulated J774 cells, TNFa (ELISA); assay type: cell-based; conditions: Normal (LPS 0.1 μg/mL)
Description: as §1

[6] = tested on: GM_CSF production in J774 cells; experiment: Cytokine production in stimulated J774 cells, GM-CSF (ELISA); assay type: cell-based; conditions: Cond. (medium from J774 cells stimulated 24 h with 0.2 μg/mL LPS)
Description: as §1

[7] = tested on: E. coli; experiment: Antibiotic dilution assay, E. coli; assay type: cell-based; conditions: liquid medium, OD600, read-out: Bacterial IC 50 (μM) E. Coli
Description: as §2, §1

[8] = tested on: Jurkat lymphocytes; experiment: In vitro toxicity: growth inhibition of Jurkat lymphocytes, Alamar Blue; assay type: cell-based; conditions: DMEM medium
Description: as §1

[9] = tested on: Jurkat; experiment: Cytotoxicity of the substances (TC50), Jurkat; assay type: cell-based; conditions: Jurkat cells
[10] = tested on: IL-10 production in J774 cells; experiment: Cytokine production in stimulated J774 cells, IL-10 (ELISA); assay type: cell-based; conditions: Normal (LPS 0.1 μg/mL)
Description: as §1

[11] = tested on: bacteria; conditions: relative to azithromycin; cited from earlier work

| SMILES | TC50 HeLa [1] | Cytokine production in J774 cells as % DMSO control, IL-12 Normal 50 μM [2] | BALF TNFa (% Vehicle) 20 μmol/kg i.n. [3] | IC50 ([4]; Staphylococcus aureus) | Cytokine production in J774 cells as % DMSO control, TNFa Normal 50 μM [5] | Cytokine production in J774 cells as % DMSO control, GM_CSF Cond. 50 μM [6] | IC50 ([7]; Escherichia coli) | Jurkat Cell toxicity Normal growth limit [8] | TC50 Jurkat [9] | Cytokine production in J774 cells as % DMSO control, IL-10 Normal 50 μM [10] | BALF TNFa (% Vehicle) 200 μmol/kg p.o. [3] | IC50 [4] | IC50 [7] | antibacterial effectiveness, fold less effective than the cladinosylated molecule [11] |
| --- | --- | --- | --- | --- | --- | --- | --- | --- | --- | --- | --- | --- | --- | --- |
| CC[C@H]1OC(=O)[C@H](C)[C@@H](O[C@H]2C[C@@](C)(OC)[C@@H](O)[C@H](C)O2)[C@H](C)[C@@H](O[C@@H]2O[C@H](C)C[C@H](N(C)C)[C@H]2O)[C@](C)(O)C[C@@H](C)CN(C)[C@H](C)[C@@H](O)[C@]1(C)O [Compound 3, 9a-aza-9a-methyl-9-deoxo-9a-homoerythromycin A, reference compound] | > 100 µM | 60 % DMSO control | 75 % Vehicle | 2.25 µM | 96 % DMSO control | 118 % DMSO control | 5.5 µM | 100 µM | > 100 µM | 122 % DMSO control | – | – | – | – |
| CCC1OC(=O)C(C)C2(O)OC(C)(CC(C)CN(C)C(C)C(=O)C1(C)O)C(OC1OC(C)CC(N(C)C)C1O)C2C (stereo not drawn) [Compound 4, 14-(4-Dimethylamino-3-hydroxy-6-methyl-tetrahydro-pyran-2-yloxy)-5-ethyl-1,6-dihydroxy-2,6,8,9,11,13,15-heptamethyl-4,16-dioxa-9-aza-bicyclo[11.2.1]hexadecane-3,7-dione] | > 100 µM | – | – | – | – | – | – | – | > 100 µM | – | – | – | – | – |
| CCOC(=O)CC1(C)C(=O)O[C@H](CC)[C@@](C)(O)[C@H](O)[C@@H](C)N(C)C[C@H](C)C[C@]2(C)O[C@@]1(O)[C@H](C)[C@H]2O[C@@H]1O[C@H](C)CC(N(C)C)[C@H]1O (stereo partly drawn) [Compound 5, [14-(4-Dimethylamino-3-hydroxy-6-methyl-tetrahydro-pyran-2-yloxy)-5-ethyl-1,6,7-trihydroxy-2,6,8,9,11,13,15-heptamethyl-3-oxo-4,16-dioxa-9-aza-bicyclo[11.2.1]hexadec-2-yl]-acetic acid ethyl ester] | – | 7 % DMSO control | 90 % Vehicle | 2600 µM | 39 % DMSO control | 114 % DMSO control | 980 µM | 100 µM | > 100 µM | 95 % DMSO control | – | – | – | – |
| CC[C@H]1OC(=O)[C@H](C)C(O)[C@H](C)[C@@H](O[C@@H]2O[C@H](C)CC([N+](C)(C)[O-])[C@H]2O)[C@](C)(O)C[C@@H](C)C[N+](C)([O-])[C@H](C)[C@@H](O)[C@]1(C)O (stereo partly drawn) [Compound 5b] | – | 67 % DMSO control | 56 % Vehicle | 1920 µM | 88 % DMSO control | 81 % DMSO control | 1090 µM | 100 µM | – | 116 % DMSO control | – | – | – | – |
| CC[C@H]1OC(=O)[C@H](C)C(=O)[C@H](C)[C@@H](O[C@@H]2O[C@H](C)CC(N(C)C)[C@H]2OC(C)=O)[C@](C)(O)C[C@@H](C)CN(C)[C@H](C)[C@@H](O)[C@]1(C)O (stereo partly drawn) [Compound 8] | – | 45 % DMSO control | 81 % Vehicle | 1970 µM | 85 % DMSO control | 83 % DMSO control | 1270 µM | 100 µM | – | 134 % DMSO control | 67 % Vehicle | – | – | – |
| CCCCCCCCC=CCCCCCCCC(=O)OC1C(OC2C(C)C(=O)C(C)C(=O)OC(CC)C(C)(O)C(OC(=O)CCCCCCCC=CCCCCCCCC)C(C)N(C)CC(C)CC2(C)O)OC(C)CC1N(C)C (stereo not drawn) [Compound 9b] | – | 76 % DMSO control | 112 % Vehicle | – | 89 % DMSO control | 53 % DMSO control | – | 100 µM | – | 123 % DMSO control | – | 2500 µM | 1950 µM | – |
| CCC1OC(=O)C(C)C(=O)C(C)C(OC2OC(C)CC(NC)C2O)C(C)(O)CC(C)CN(C)C(C)C(O)C1(C)O (stereo not drawn) [Compound 11] | – | 53 % DMSO control | 80 % Vehicle | – | 86 % DMSO control | 174 % DMSO control | – | 100 µM | – | 96 % DMSO control | 98 % Vehicle | 2340 µM | 1090 µM | – |
| CC[C@H]1OC(=O)[C@H](C)C(O)[C@H](C)[C@@H](O[C@@H]2O[C@H](C)C[C@H](N(C)C)[C@H]2O)/C(C)=C/[C@@H](C)CN(C)[C@H](C)[C@@H](O)[C@]1(C)O (stereo partly drawn) [Compound 13] | – | 47 % DMSO control | 78 % Vehicle | – | 99 % DMSO control | 193 % DMSO control | – | 100 µM | – | 98 % DMSO control | – | 1570 µM | 2140 µM | – |
| CC[C@H]1OC(=O)[C@H](C)[C@@]2(O)O[C@@](C)(C[C@@H](C)CN[C@H](C)[C@@H](O)[C@]1(C)O)[C@H](O[C@@H]1O[C@H](C)C[C@H](NC)[C@H]1O)[C@H]2C [Compound 14] | – | 143 % DMSO control | 62 % Vehicle | 1950 µM | 93 % DMSO control | 153 % DMSO control | 1320 µM | 100 µM | – | 95 % DMSO control | 95 % Vehicle | – | – | – |
| CC[C@H]1OC(=O)[C@H](C)C(=O)[C@H](C)[C@@H](O[C@@H]2O[C@H](C)CC(N(C)C)[C@H]2O)[C@](C)(O)C[C@@H](C)CN(C)[C@H](C)[C@H]2OC(=O)O[C@@]21C (stereo partly drawn) [Example 10] | – | 40 % DMSO control | 99 % Vehicle | 1600 µM | 72 % DMSO control | 14 % DMSO control | 1350 µM | 100 µM | – | 118 % DMSO control | – | – | – | – |
| CC[C@H]1OC(=O)[C@H](C)[C@@H](O)[C@H](C)[C@@H](O[C@@H]2O[C@H](C)C[C@H](N(C)C)[C@H]2O)[C@](C)(O)C[C@@H](C)CN(C)[C@H](C)[C@@H](O)[C@]1(C)O [decladinosyl azithromycin] | – | – | – | – | – | – | – | – | – | – | – | – | – | ca. 5 fold |
